Laboratory results taken from ChEMBL document CHEMBL4800726, “Data for DCP probe MSC-4381” (2021).
Each block holds one compound with its values, some of them ahead of it.

Assays:
[1] = biological target: Histamine H3 receptor (Homo sapiens) (UniProt Q9Y5N1); details: Compound concentration 10.0 uM
[2] = biological target: Monocarboxylate transporter 1 (Homo sapiens, UniProt P53985); experiment: Lactate efflux inhibition assay (SNU-398)
[3] = GPCRScan assay: inhibition of GABA/PBR; set-up: species or system Rattus norvegicus; radioligand conc. used [nm] 0.3 – 2.0, parental cells brain tissue
[4] = biological target: Monocarboxylate transporter 1/4 (Homo sapiens, UniProt P53985+O15427); experiment: Lactate efflux inhibition assay (MiaPaCa2 ); type: protein assay
[5] = biological target: T1, 5-hydroxytryptamine receptor 1E (Homo sapiens, UniProt P28566); details: Compound concentration 10.0 uM
T1 sequence (P28566 whole entry): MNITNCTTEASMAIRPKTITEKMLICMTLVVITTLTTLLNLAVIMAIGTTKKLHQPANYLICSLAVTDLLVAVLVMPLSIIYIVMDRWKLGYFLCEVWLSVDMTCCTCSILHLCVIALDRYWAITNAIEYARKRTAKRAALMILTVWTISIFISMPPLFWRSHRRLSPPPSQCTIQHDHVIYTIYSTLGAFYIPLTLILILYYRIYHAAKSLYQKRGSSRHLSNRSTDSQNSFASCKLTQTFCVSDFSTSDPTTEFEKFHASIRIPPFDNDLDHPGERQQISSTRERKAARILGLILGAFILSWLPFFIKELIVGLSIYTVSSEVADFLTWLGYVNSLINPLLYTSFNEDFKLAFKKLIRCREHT

[6] = biological target: D(3) dopamine receptor (Homo sapiens) (UniProt P35462); details: Compound concentration 10.0 uM
[7] = biological target: 5-hydroxytryptamine receptor 1D (Homo sapiens) (UniProt P28221); details: Compound concentration 10.0 uM
[8] = biological target: Prostaglandin E2 receptor EP4 subtype (Homo sapiens) (UniProt P35408); experiment: EP4 (h) Eurofins-Cerep binding assay; set-up: ligand concentration 0.5 nM; details: filed as agonist, Compound concentration 10.0 uM
Chain of Prostaglandin E2 receptor EP4 subtype (Homo sapiens) (P35408 whole entry): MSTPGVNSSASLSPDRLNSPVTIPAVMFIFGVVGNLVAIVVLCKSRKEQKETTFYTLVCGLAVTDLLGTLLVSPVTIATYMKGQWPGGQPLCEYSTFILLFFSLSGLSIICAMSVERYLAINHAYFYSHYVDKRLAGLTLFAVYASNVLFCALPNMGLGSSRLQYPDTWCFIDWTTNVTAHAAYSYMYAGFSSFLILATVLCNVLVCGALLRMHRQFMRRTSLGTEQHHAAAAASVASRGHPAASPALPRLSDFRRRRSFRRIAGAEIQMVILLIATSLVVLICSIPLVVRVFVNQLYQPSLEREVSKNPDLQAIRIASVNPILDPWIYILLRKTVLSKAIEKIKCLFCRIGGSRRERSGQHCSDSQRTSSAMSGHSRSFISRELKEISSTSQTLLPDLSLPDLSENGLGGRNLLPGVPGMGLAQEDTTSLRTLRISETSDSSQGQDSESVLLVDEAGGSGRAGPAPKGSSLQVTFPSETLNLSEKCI

[9] = biological target: T2, 5-hydroxytryptamine receptor 1A (Homo sapiens) (UniProt P08908); experiment: 5-HT1A (h) Eurofins-Cerep binding assay; set-up: ligand concentration 0.5 nM; details: filed as agonist, Compound concentration 10.0 uM
T2 sequence (whole entry): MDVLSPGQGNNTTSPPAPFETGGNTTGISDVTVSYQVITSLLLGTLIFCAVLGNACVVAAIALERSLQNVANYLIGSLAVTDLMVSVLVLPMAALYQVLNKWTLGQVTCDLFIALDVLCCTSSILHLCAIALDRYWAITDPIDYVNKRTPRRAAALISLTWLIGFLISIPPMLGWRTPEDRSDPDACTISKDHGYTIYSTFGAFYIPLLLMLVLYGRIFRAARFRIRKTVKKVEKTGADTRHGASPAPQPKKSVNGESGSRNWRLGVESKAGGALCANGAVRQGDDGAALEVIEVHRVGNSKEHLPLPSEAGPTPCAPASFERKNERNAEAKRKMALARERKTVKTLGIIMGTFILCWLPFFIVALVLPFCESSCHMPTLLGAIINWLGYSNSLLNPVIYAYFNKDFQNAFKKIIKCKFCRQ

[10] = biological target: D(1B) dopamine receptor (Homo sapiens) (UniProt P21918); details: Compound concentration 10.0 uM
[11] = biological target: Vasoactive intestinal polypeptide receptor 1 (Homo sapiens) (UniProt P32241); experiment: VPAC1 (VIP1) (h) Eurofins-Cerep binding assay; set-up: ligand concentration 0.04 nM; details: filed as agonist, Compound concentration 10.0 uM
[12] = biological target: GABA-A receptor; anion channel (Rattus norvegicus) (UniProt O09028+P15431+P18506+P18508+P19969+P20236+P23574+P23576+P28471+P28473+P30191+P62813+P63079+P63138+Q91ZM7+Q9ES14); experiment: GABA (non-selective) Eurofins-Cerep binding assay; type: protein-complex assay; set-up: ligand concentration 10 nM; details: filed as agonist, Compound concentration 10.0 uM
[13] = biological target: Kappa-type opioid receptor (Homo sapiens) (UniProt P41145); experiment: kappa (h) (KOP) Eurofins-Cerep binding assay; set-up: ligand concentration 0.5 nM; details: filed as agonist, Compound concentration 10.0 uM
[14] = biological target: Vasopressin V1a receptor (Homo sapiens) (UniProt P37288); experiment: V1a (h) Eurofins-Cerep Cellular and Nuclear Receptor Functional Assays; details: Compound concentration 10.0 uM
Chain of Vasopressin V1a receptor (Homo sapiens) (P37288 whole entry, looked up): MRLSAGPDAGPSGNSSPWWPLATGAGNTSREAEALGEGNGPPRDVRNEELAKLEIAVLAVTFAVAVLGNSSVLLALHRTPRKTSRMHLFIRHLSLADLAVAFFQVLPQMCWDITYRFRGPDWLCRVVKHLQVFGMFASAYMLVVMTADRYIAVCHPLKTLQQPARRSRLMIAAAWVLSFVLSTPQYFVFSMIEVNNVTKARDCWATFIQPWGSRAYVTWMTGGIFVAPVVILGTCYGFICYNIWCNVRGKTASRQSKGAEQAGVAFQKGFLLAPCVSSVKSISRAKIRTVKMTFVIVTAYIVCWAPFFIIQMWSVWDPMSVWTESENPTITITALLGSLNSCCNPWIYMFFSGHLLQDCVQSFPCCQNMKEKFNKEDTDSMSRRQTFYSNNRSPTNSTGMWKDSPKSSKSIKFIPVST

[15] = biological target: C-X-C chemokine receptor type 2 (Homo sapiens) (UniProt P25025); experiment: CXCR2 (IL-8B) (h) Eurofins-Cerep binding assay; set-up: ligand concentration 0.025 nM; details: filed as agonist, Compound concentration 10.0 uM
[16] = biological target: T1, 5-hydroxytryptamine receptor 1E; experiment: GPCRScan assay: inhibition of 5-HT1E; set-up: radioligand conc. used [nm] 2.1 – 5.0, parental cells stable HEK
[17] = biological target: Melanocortin receptor 4 (Homo sapiens) (UniProt P32245); experiment: MC4 (h) Eurofins-Cerep binding assay; set-up: ligand concentration 0.05 nM; details: filed as agonist, Compound concentration 10.0 uM
Chain of Melanocortin receptor 4 (Homo sapiens) (P32245 whole entry): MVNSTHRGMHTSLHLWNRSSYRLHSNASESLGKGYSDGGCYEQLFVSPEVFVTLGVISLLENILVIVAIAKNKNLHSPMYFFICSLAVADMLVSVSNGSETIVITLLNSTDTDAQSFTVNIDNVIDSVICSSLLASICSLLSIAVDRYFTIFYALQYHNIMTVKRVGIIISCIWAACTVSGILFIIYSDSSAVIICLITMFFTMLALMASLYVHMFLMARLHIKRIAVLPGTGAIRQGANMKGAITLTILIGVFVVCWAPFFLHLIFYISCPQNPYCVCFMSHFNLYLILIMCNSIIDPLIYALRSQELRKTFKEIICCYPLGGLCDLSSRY

[18] = biological target: Delta-type opioid receptor (Homo sapiens, UniProt P41143); experiment: delta (DOP) (h) Eurofins-Cerep binding assay; set-up: ligand concentration 0.5 nM; details: filed as agonist, Compound concentration 10.0 uM
Chain of Delta-type opioid receptor (P41143 whole entry): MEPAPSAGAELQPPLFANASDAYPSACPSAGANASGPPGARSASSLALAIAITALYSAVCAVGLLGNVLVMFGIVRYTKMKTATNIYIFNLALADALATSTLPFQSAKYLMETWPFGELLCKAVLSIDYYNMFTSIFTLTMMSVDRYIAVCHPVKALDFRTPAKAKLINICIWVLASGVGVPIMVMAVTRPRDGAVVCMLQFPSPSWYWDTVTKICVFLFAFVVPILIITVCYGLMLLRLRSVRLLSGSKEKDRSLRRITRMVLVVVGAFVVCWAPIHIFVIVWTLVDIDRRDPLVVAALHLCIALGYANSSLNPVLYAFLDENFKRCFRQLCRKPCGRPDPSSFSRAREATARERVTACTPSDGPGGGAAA

[19] = biological target: Substance-K receptor (Homo sapiens) (UniProt P21452); experiment: NK2 (h) Eurofins-Cerep binding assay; set-up: ligand concentration 0.1 nM; details: filed as agonist, Compound concentration 10.0 uM
[20] = biological target: Sodium-dependent serotonin transporter (Homo sapiens) (UniProt P31645); experiment: 5-HT transporter (h) Eurofins-Cerep binding assay; set-up: ligand concentration 2 nM; details: filed as antagonist, Compound concentration 10.0 uM
[21] = biological target: L-type Ca2+ channel (verapamil site, phenylalkylamine) (Rattus norvegicus, UniProt P22002+P27732+Q02485); experiment: Ca2+ channel (L, verapamil site) (phenylalkylamine) Eurofins-Cerep binding assay; type: protein assay; set-up: incubation time 120 min, incubation temperature RT, ligand concentration 3 nM; details: rat cerebral cortex, probe [3H]D888, compound concentration 10 uM, read-out: % Inhibition of Control Specific Binding (Mean n=2)
[22] = biological target: Histamine H1 receptor (Homo sapiens) (UniProt P35367); experiment: H1 (h) Eurofins-Cerep binding assay; set-up: ligand concentration 1 nM; details: filed as antagonist, Compound concentration 10.0 uM
[23] = biological target: C-C chemokine receptor type 1 (Homo sapiens) (UniProt P32246); experiment: CCR1 (h) Eurofins-Cerep binding assay; set-up: ligand concentration 0.01 nM; details: filed as agonist, Compound concentration 10.0 uM
Chain of C-C chemokine receptor type 1 (Homo sapiens) (P32246 whole entry): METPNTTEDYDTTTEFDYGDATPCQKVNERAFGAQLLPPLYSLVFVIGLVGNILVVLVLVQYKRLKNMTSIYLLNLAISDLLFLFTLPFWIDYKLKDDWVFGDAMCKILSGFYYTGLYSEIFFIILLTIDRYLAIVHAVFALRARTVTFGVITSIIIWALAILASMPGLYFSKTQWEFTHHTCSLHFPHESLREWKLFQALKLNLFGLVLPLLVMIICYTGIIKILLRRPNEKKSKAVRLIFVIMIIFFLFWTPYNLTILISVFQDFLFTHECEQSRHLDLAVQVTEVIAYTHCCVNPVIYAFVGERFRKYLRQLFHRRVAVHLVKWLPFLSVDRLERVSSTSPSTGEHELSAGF

[24] = biological target: B2 bradykinin receptor (Homo sapiens) (UniProt P30411); experiment: B2 (h) Eurofins-Cerep binding assay; set-up: ligand concentration 0.3 nM; details: filed as agonist, Compound concentration 10.0 uM
[25] = biological target: Vasopressin V1a receptor (Homo sapiens) (UniProt P37288); experiment: V1 a (h) Eurofins-Cerep binding assay; set-up: ligand concentration 0.3 nM; details: filed as agonist, Compound concentration 10.0 uM
[26] = biological target: D(2) dopamine receptor (Homo sapiens) (UniProt P14416); experiment: D2S (h) Eurofins-Cerep binding assay; set-up: ligand concentration 0.3 nM; details: filed as antagonist, Compound concentration 10.0 uM
[27] = biological target: Adenosine receptor A3 (Homo sapiens) (UniProt P0DMS8); experiment: A3 (h) Eurofins-Cerep binding assay; set-up: ligand concentration 0.15 nM; details: filed as agonist, Compound concentration 10.0 uM
[28] = biological target: Muscarinic acetylcholine receptor M3 (Homo sapiens) (UniProt P20309); experiment: M3 (h) Eurofins-Cerep binding assay; set-up: ligand concentration 0.2 nM; details: filed as antagonist, Compound concentration 10.0 uM
[29] = biological target: Adrenergic receptor alpha-2 (Rattus norvegicus) (UniProt P22086+P19328+P22909); experiment: Alpha2 (non-selective) Eurofins-Cerep binding assay; type: protein assay; set-up: ligand concentration 1 nM; details: filed as antagonist, Compound concentration 10.0 uM
[30] = biological target: Somatostatin receptor (Mus musculus) (UniProt P30935+O08858+P30875+P30873+P49660); experiment: sst (non-selective) Eurofins-Cerep binding assay; type: protein assay; set-up: ligand concentration 0.05 nM; details: filed as agonist, Compound concentration 10.0 uM
Chain of Somatostatin receptor (Mus musculus) (P30935 whole entry): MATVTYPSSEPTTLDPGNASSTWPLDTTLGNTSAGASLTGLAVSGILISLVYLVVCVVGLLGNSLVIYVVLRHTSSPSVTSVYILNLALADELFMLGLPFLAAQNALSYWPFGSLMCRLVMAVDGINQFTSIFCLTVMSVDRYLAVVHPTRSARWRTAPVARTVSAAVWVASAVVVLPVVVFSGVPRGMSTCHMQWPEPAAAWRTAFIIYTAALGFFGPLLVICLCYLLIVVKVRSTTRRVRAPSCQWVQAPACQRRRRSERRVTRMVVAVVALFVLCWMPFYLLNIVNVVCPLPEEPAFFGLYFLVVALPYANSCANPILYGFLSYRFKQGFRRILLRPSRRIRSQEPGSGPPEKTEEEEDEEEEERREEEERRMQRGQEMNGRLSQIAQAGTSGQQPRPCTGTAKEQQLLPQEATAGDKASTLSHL
Chain of Somatostatin receptor (Mus musculus) (O08858 whole entry): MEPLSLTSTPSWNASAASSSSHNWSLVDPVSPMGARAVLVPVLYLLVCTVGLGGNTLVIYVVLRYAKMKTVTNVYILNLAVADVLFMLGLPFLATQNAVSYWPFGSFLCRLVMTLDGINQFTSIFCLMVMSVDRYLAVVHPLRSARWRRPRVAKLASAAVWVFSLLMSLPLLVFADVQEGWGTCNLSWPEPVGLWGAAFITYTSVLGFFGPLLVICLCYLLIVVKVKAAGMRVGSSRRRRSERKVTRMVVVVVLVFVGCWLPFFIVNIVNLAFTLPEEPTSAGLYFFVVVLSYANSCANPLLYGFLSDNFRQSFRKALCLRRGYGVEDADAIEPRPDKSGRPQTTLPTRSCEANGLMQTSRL
Chain of Somatostatin receptor (Mus musculus) (P30875 whole entry): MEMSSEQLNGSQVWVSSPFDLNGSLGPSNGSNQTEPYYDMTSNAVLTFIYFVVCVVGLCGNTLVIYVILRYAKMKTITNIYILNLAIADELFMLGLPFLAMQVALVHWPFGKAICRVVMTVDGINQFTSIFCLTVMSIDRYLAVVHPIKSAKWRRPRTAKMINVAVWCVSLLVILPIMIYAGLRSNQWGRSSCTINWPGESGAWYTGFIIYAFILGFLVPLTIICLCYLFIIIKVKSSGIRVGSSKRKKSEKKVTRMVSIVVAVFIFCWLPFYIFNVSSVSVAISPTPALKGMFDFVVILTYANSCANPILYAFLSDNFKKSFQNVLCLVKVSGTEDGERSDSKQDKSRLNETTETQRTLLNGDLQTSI
Chain of Somatostatin receptor (Mus musculus) (P30873 whole entry): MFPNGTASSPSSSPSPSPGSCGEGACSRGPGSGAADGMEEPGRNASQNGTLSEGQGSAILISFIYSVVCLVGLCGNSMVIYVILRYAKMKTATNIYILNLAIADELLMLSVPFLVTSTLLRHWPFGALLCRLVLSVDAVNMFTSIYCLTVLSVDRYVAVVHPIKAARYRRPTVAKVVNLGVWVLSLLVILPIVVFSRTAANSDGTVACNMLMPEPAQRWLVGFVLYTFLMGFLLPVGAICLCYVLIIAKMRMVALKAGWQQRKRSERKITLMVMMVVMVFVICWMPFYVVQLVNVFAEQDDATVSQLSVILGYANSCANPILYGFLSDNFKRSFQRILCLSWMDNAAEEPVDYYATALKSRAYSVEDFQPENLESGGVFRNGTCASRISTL
Chain of Somatostatin receptor (Mus musculus) (P49660 with tags, fused parts or gaps): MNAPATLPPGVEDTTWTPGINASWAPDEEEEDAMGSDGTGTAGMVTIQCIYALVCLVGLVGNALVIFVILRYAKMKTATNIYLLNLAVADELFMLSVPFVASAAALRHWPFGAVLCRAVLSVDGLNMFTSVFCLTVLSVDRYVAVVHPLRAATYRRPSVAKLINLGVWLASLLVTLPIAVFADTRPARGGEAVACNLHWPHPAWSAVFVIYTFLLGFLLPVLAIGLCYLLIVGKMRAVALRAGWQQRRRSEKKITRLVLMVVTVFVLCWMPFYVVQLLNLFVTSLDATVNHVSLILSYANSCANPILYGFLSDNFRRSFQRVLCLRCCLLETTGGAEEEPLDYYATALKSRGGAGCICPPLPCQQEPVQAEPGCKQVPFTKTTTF

[31] = biological target: Neurotensin receptor type 1 (Homo sapiens) (UniProt P30989); experiment: NTS1 (NT1) (h) Eurofins-Cerep binding assay; set-up: ligand concentration 0.05 nM; details: filed as agonist, Compound concentration 10.0 uM
Chain of Neurotensin receptor type 1 (Homo sapiens) (P30989 whole entry): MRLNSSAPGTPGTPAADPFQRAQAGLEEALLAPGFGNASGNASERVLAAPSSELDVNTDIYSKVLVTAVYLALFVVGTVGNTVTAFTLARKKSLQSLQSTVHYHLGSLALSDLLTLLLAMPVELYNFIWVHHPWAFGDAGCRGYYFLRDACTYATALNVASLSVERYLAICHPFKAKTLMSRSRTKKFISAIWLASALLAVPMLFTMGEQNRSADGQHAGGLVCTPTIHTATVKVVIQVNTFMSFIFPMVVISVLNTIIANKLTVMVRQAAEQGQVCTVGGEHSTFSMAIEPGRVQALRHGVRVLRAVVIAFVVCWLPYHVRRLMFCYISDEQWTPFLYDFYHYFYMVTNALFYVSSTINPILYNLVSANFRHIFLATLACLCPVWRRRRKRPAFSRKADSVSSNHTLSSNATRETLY

[32] = biological target: 5-hydroxytryptamine receptor 2B (Homo sapiens) (UniProt P41595); experiment: 5-HT2B (h) Eurofins-Cerep binding assay; set-up: ligand concentration 0.2 nM; details: filed as agonist, Compound concentration 10.0 uM
[33] = biological target: Adrenergic receptor alpha-1 (Rattus norvegicus) (UniProt P15823+P23944+P43140); experiment: Alpha1 (non-selective) Eurofins-Cerep binding assay; type: protein assay; set-up: ligand concentration 0.25 nM; details: filed as antagonist, Compound concentration 10.0 uM

inhibition [1]: 6.76%
IC50 [2]: > 4 µM (not active)
Ki [3]: 0.734 µM
pKi [3]: 6.14
IC50 [4]: > 4 µM
inhibition [5]: 20.6%
inhibition [6]: -9.21%
inhibition [7]: 11.4%
Structure (SMILES): COc1cc(C(=O)O)ncc1C#Cc1ccccc1NS(=O)(=O)c1cccc2c(N(C)C)ccnc12 [MSC-0516]

% Inhibition of Control Specific Binding (Mean n=2) [8]: 47.2%
% Inhibition of Control Specific Binding (Mean n=2) [9]: -58.9%
inhibition [10]: 47.7%
% Inhibition of Control Specific Binding (Mean n=2) [11]: -3.2%
% Inhibition of Control Specific Binding (Mean n=2) [12]: 1.2%
% Inhibition of Control Specific Binding (Mean n=2) [13]: -12.1%
% Inhibition of Control Agonist Response (Mean n=2) [14]: 34.9%
% of Control Agonist Response (Mean n=2) [14]: -3.1%
% Inhibition of Control Specific Binding (Mean n=2) [15]: 7.3%
Ki [16]: > 10 µM
pKi [16]: < 5
% Inhibition of Control Specific Binding (Mean n=2) [17]: -8%
% Inhibition of Control Specific Binding (Mean n=2) [18]: 11.7%
% Inhibition of Control Specific Binding (Mean n=2) [19]: 46%
% Inhibition of Control Specific Binding (Mean n=2) [20]: 2.4%
inhibition at 120 min, 10 µM [21]: -9.8%
% Inhibition of Control Specific Binding (Mean n=2) [22]: 27.6%
% Inhibition of Control Specific Binding (Mean n=2) [23]: -4.3%
% Inhibition of Control Specific Binding (Mean n=2) [24]: -1.1%
% Inhibition of Control Specific Binding (Mean n=2) [25]: 92.3%
% Inhibition of Control Specific Binding (Mean n=2) [26]: 9.2%
% Inhibition of Control Specific Binding (Mean n=2) [27]: 28.1%
% Inhibition of Control Specific Binding (Mean n=2) [28]: 8%
% Inhibition of Control Specific Binding (Mean n=2) [29]: -8.2%
% Inhibition of Control Specific Binding (Mean n=2) [30]: -21.6%
% Inhibition of Control Specific Binding (Mean n=2) [31]: -10.4%
% Inhibition of Control Specific Binding (Mean n=2) [32]: -47.1%
% Inhibition of Control Specific Binding (Mean n=2) [33]: 6.6%
Structure (SMILES): CCOc1ccc(S(=O)(=O)Nc2ccc(Cl)cc2C#Cc2cnc(C(=O)O)cc2OC)c2ncccc12 [MSC-4381]
